The nature of data set [1]: in vitro. As to conditions: African green monkey.
A further data set concerns Setosphaeria turcica. More on the design: method as in PMID 28862674. The conditions noted are these: plant pathogen; cited from earlier work.
Another data set concerns Plasmodium berghei. More on the design: method as in PMID 5459626. As to conditions: cited from earlier work.
Data set [2] deals with HPV-18-positive HeLa cells. More on the design: method as in PMID 28862674. As to conditions: cervical cancer cell line; cited from earlier work.
For data set [3], the system named is Mycobacterium tuberculosis strain H37Ra. Kind of data set: microbe, parasite or virus in culture. It is filed as cell-based. The conditions noted are these: for MIC: Mycobacterium tuberculosis, H37RA, read-out: Anti-M. tuberculosis MIC.
In the next data set the test system is Syphacia oblevata. Details: method as in PMID 5459626. The conditions noted are these: cited from earlier work.
The next data set relates to Bacillus cereus. The data set is described as follows: Antibacterial resazurin microplate assay (REMA), anti-B. cereus. As to conditions: inactive = at the final concentration of 50 μg/mL. It is filed as cell-based. (In general: The colour change of resazurin is a common sign of viable cells or microbes.)
Data set [4] deals with Plasmodium falciparum (K-1, multi-drug resistant strain). Kind of data set: microbe, parasite or virus in culture. Format: cell-based. The conditions noted are these: for Anti-P. falciparum IC50: K-1 multi-drug resistant strain, inactive = at the final concentration of 50 μg/mL; for IC50: Plasmodium falciparum, read-out: Anti-P. falciparum IC50.
Data set [5] deals with MCF-7 (human breast cancer, ATCC HTC-22). As to conditions: MCF-7 cells; inactive = at the final concentration of 50 μg/mL.
The subject of data set [6] is KB (oral human epidermoid carcinoma, ATCC CCL-17). The conditions noted are these: KB cells; inactive = at the final concentration of 50 μg/mL.
The nature of data set [7]: in vitro. The conditions noted are these: human.
The subject of another data set is oncostatin M signaling. As to conditions: cell-based; cited from earlier work.
The next data set has as its target Hsp90 ATPase. Details: method as in PMID 23124337. As to conditions: isolated from Streptomyces hygroscopicus JCM4427; read-out: Hsp90 ATPase inhibition IC50; cited from earlier work.
Data set [8] relates to human histiocytic lymphoma U-937 cell line. Details: method as in PMID 11213294. As to conditions: cited from earlier work.
For the next data set, the system named is SK-Mel-28. More on the design: method as in PMID 21376551. As to conditions: cited from earlier work.
The next data set deals with SK-Mel-5. Details: method as in PMID 21376551. As to conditions: cited from earlier work.
The test system of the next data set is V. alginolyticus. Details: method as in PMID 21376551. The conditions noted are these: cited from earlier work.
Data set [9] concerns tested microorganisms used in this study. The data set is described as follows: Antimicrobial activity test, tested microorganisms of this study. It is filed as cell-based. As to conditions: at a concentration of 50 μg/mL.
Data set [10] has as its system NCI-H187 (human small-cell lung cancer, ATCC CRL-5804). The conditions noted are these: NCI-H187 cells; inactive = at the final concentration of 50 μg/mL.
The subject of another data set is C. albicans. Details: method as in PMID 21376551. The conditions noted are these: cited from earlier work.
Another data set has as its system PRMI-7951. Details: method as in PMID 21376551. The conditions noted are these: cited from earlier work.
For another data set, the system named is B. subtilis. Details: method as in PMID 21376551. As to conditions: cited from earlier work.
Another data set has as its system T-47D. More on the design: method as in PMID 21376551. The conditions noted are these: cited from earlier work.
On the set-up of data set [11]: method as in PMID 15844966. As to conditions: final concentration of up to 200 μg/mL; cited from earlier work.
The subject of the next data set is E. faecium. Details: method as in PMID 21376551. As to conditions: cited from earlier work.
In data set [12] the test system is Vero cells (African green monkey kidney fibroblasts, ATCC CCL-81). As to conditions: inactive = at the final concentration of 50 μg/mL.
Data set [13] can be described thus: in vitro. The conditions noted are these: human. This is another data set of the same source.

The structures appear in SMILES notation. Values after ≈ are worked out from the molar mass of the structure shown.

What is called IC50 is the concentration that inhibits the measured activity by half. In “in vitro [1]”, `COC1=C2C[C@@H](C)C[C@H](OC)[C@H](O)[C@@H](C)/C=C(\C)[C@H](OC(N)=O)[C@@H](OC)/C=C\C=C(/C)C(=O)NC(=CC1=O)C2=O` [(1), geldanamycin] registered an IC50 of 0.094 µg/mL (≈ 0.168 µM). In addition, the “antifungal activity against Setosphaeria turcica” value in the data set on Setosphaeria turcica is on record as “antifungal activity”. Moreover, the “in vivo anti-parasitic activity against Plasmodium berghei” value with Plasmodium berghei is on record as “not against Plasmodium berghei”. The “growth of HPV-18-positive HeLa cells” value in [2] is “inhibited the growth”. Also, the “Anti-M. tuberculosis MIC” value in [3] was “inactive”. Besides, in the data set with Syphacia oblevata, the “in vivo anti-parasitic activity against Syphacia oblevata” value is “in vivo anti-parasitic activity”. Also, in the data set with Bacillus cereus, the “Anti-B. cereus MIC” value is “inactive”. The “Anti-P. falciparum IC50” value in [4] was “inactive”.

For the compound `CO[C@H]1/C=C\C=C(/C)C(=O)NC2=CC(=O)C(O)=C(C[C@@H](C)C[C@H](OC)[C@H](O)[C@@H](C)/C=C(\C)[C@@H]1OC(N)=O)C2=O` [(2), 17-O-demethylgeldanamycin], the IC50 in the data set “in vitro [1]” is 6.43 µg/mL (≈ 11.8 µM); in the data set “in vitro [7]”, 4.25 µg/mL (≈ 7.78 µM). Moreover, the “Cytotoxicity IC50 MCF-7” value in data set [5] was “inactive”. Besides, in data set [6], the “Cytotoxicity IC50 KB” value is “inactive”. For the same compound, in [3], the “Anti-M. tuberculosis MIC” value was “inactive”. Besides, in the data set on Bacillus cereus, the “Anti-B. cereus MIC” value was “inactive”. Besides, the “Anti-P. falciparum IC50” value in data set [4] is “inactive”.

Turning to `COc1c(O)cc2cc1C[C@@H](C)C[C@H](OC)[C@H](O)[C@@H](C)/C=C(\C)[C@H](OC(N)=O)[C@@H](OC)CC/C=C(\C)C(=O)N2` [(3), reblastatin], the concentration for half-maximal inhibition (IC50) in the data set with oncostatin M signaling is 160 nM; on Hsp90 ATPase, 320 nM; in the data set “in vitro [1]”, 7.75 µg/mL (≈ 14.1 µM). For the same compound, the “inhibition of proliferation of U-937 IC50” value in data set [8] was 0.43 µg/mL. In [3], the “Anti-M. tuberculosis MIC” value was “inactive”. Besides, the “Anti-B. cereus MIC” value in the data set on Bacillus cereus was “inactive”. The “Anti-P. falciparum IC50” value in [4] was “inactive”.

For the compound `CO[C@H]1C[C@H](C)Cc2cc(O)cc(c2)NC(=O)/C(C)=C/CC[C@H](OC)[C@@H](OC(N)=O)/C(C)=C/[C@H](C)[C@H]1O` [(4), 17-demethoxyreblastatin], the IC50 at Hsp90 ATPase is 1820 nM; in “in vitro [1]” it was 13.5 µg/mL (≈ 26 µM); in “in vitro [7]”, 1.33 µg/mL (≈ 2.56 µM). Besides, the “Cytotoxicity IC50 MCF-7” value in data set [5] was “inactive”. For the same compound, in [6], the “Cytotoxicity IC50 KB” value is “inactive”. Moreover, the “Anti-M. tuberculosis MIC” value in [3] is “inactive”. In addition, in the data set with Bacillus cereus, the “Anti-B. cereus MIC” value was “inactive”. In addition, the “Anti-P. falciparum IC50” value in data set [4] was “inactive”.

With `O=C1CCC(=O)N(O)CCCCCNC(=O)CCC(=O)N(O)CCCCCNC(=O)CCC(=O)N(O)CCCCCN1` [(5), nocardamine], in the data set on SK-Mel-28, the “cell proliferation of SK-Mel-28” value was “did not inhibit cell proliferation” and the “colony formation of SK-Mel-28” value is “did inhibit their colony formation”. Moreover, in the data set with SK-Mel-5, the “cell proliferation of SK-Mel-5” value is recorded as “did not inhibit cell proliferation” and the “colony formation of SK-Mel-5” value is “did inhibit their colony formation”. The “antimicrobial activity against V. alginolyticus” value in the data set on V. alginolyticus is recorded as “no activity”. Moreover, the “antimicrobial activity against tested microorganisms” value in data set [9] was “inactive”. This compound also came in with an IC50 in the data set “in vitro [1]” of 16.6 µg/mL (≈ 27.6 µM). The “Cytotoxicity IC50 MCF-7” value in data set [5] is “inactive”. For the same compound, in [10], the “Cytotoxicity IC50 NCI-H187” value is “inactive”. Besides, in data set [6], the “Cytotoxicity IC50 KB” value was “inactive”. Besides, the “antimicrobial activity against C. albicans” value in the data set on C. albicans is “no activity”. For the same compound, in the data set on PRMI-7951, the “cell proliferation of PRMI-7951” value was “did not inhibit cell proliferation” and the “colony formation of PRMI-7951” value is reported as “did inhibit their colony formation”. The “antimicrobial activity against B. subtilis” value in the data set with B. subtilis is given as “weak antimicrobial activity”. The “Anti-M. tuberculosis MIC” value in data set [3] is “inactive”. Also, in the data set with T-47D, the “cell proliferation of T-47D” value is on record as “did not inhibit cell proliferation” and the “colony formation of T-47D” value is listed as “did inhibit their colony formation”. The antimicrobial activity result in data set [11] is listed as “no antimicrobial activity”. For the same compound, the “Anti-B. cereus MIC” value in the data set on Bacillus cereus is “inactive”. Also, the “antimicrobial activity against E. faecium” value in the data set with E. faecium is listed as “weak antimicrobial activity”. Besides, the “Anti-P. falciparum IC50” value in data set [4] is “inactive”.

With `O=C1CCC(=O)NCCCCCN(O)C(=O)CCC(=O)NCCCCCN(O)C(=O)CCC(=O)NCCCCCN1` [(6), dehydroxynocardamine], the “antimicrobial activity against tested microorganisms” value in data set [9] is “inactive”. For the same compound, the “Cytotoxicity IC50 MCF-7” value in data set [5] was “inactive”. Besides, in data set [6], the “Cytotoxicity IC50 KB” value is “inactive”. Besides, in “in vitro [7]”, half-maximal inhibition (IC50) required 14 µg/mL (≈ 23.9 µM). In addition, in [3], the “Anti-M. tuberculosis MIC” value was “inactive”. Moreover, the antimicrobial activity entry in data set [11] is recorded as “no antimicrobial activity”. Moreover, the “Anti-B. cereus MIC” value in the data set on Bacillus cereus was “inactive”. In addition, in [4], the “Anti-P. falciparum IC50” value is “inactive”. Further, the “Cytotoxicity IC50 Vero” value in data set [12] is “inactive”.

Regarding `C[C@H]1[C@@H](O)O[C@@H]2O[C@@]3(C)CC[C@H]4[C@H](C)CC[C@@H]1[C@@]24OO3` [Dihydroartemisinine, reference compound], the IC50 in data set [4] worked out at 0.000702 µg/mL (≈ 0.00247 µM).

Consider `Cc1c2ccncc2c(C)c2c1[nH]c1ccccc12` [Ellipticine, reference compound], for which the 50% inhibitory concentration (IC50) in “in vitro [1]” was found to be 1.58 µg/mL (≈ 6.41 µM).

For `CC[C@@H](CO)NCCN[C@@H](CC)CO` [Ethambutol, reference compound], the MIC in data set [3] stood at 0.938 µg/mL (≈ 4.59 µM).

Consider `NNC(=O)c1ccncc1` [Isoniazid, reference compound], for which the MIC in [3] amounted to 0.047 µg/mL (≈ 0.343 µM).

For the compound `OC(c1cc(C(F)(F)F)nc2c(C(F)(F)F)cccc12)C1CCCCN1` (stereo not drawn) [Mefloquine, reference compound], the IC50 in [4] was 0.024 µg/mL (≈ 0.0634 µM).

Regarding `CC1COc2c(N3CCN(C)CC3)c(F)cc3c(=O)c(C(=O)O)cn1c23` (stereo not drawn) [Ofloxacin, reference compound], the MIC in data set [3] stood at 0.391 µg/mL (≈ 1.08 µM).

In the case of `CO[C@H]1/C=C/O[C@@]2(C)Oc3c(C)c(O)c4c(O)c(c(/C=N/N5CCN(C)CC5)c(O)c4c3C2=O)NC(=O)/C(C)=C\C=C\[C@H](C)[C@H](O)[C@@H](C)[C@@H](O)[C@@H](C)[C@H](OC(C)=O)[C@@H]1C` [Rifampicin, reference compound], the MIC in data set [3] amounted to 0.013 µg/mL (≈ 0.0158 µM).

With `CC/C(=C(\c1ccccc1)c1ccc(OCCN(C)C)cc1)c1ccccc1` [Tamoxifen, reference compound], in the data set “in vitro [13]”, the 50% inhibitory concentration (IC50) was determined as 6.96 µg/mL (≈ 18.7 µM).

For the compound `CN[C@H](CC(C)C)C(=O)N[C@H]1C(=O)N[C@@H](CC(N)=O)C(=O)N[C@H]2C(=O)N[C@H]3C(=O)N[C@H](C(=O)N[C@H](C(=O)O)c4cc(O)cc(O)c4-c4cc3ccc4O)[C@H](O)c3ccc(c(Cl)c3)Oc3cc2cc(c3O[C@@H]2O[C@H](CO)[C@@H](O)[C@H](O)[C@H]2O[C@H]2C[C@](C)(N)[C@H](O)[C@H](C)O2)Oc2ccc(cc2Cl)[C@H]1O` [Vancomycin, reference compound], in the data set with Bacillus cereus (Bacillus cereus), the MIC is 2 µg/mL (≈ 1.38 µM).

(Values after publication PMC10525797, “Streptomyces rugosispiralis sp. nov., a Novel Actinobacterium Isolated from Peat Swamp Forest Soil That Produces Ansamycin Derivatives and Nocardamines” (Antibiotics, 2023).)
